Test results reported in patent US11034650B2, “Compounds useful for treating a Mannheimia haemolytica or Histophilus somni infection” (Intervet Inc., priority 2016, dated 2021).
≈ marks a conversion by molar mass, not a printed value.

Columns and labels:
Format in all cases: cell-based
[1] = test system: Mannheimia haemolytica MH 10720 (154, BRD field isolate); assay: MIC, broth-microdilution (CLSI VET01-A4), strain MH 10720; conditions: Mannheimia haemolytica strain MH 10720, broth-microdilution; unit assumed
Procedure, shortened: (§1)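 Growth inhibition is scored visually on a doubling dilution series. The reported MIC corresponds to the lowest concentration free of turbidity, with results assessed under CLSI VET01-S3.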

[2] = test system: Pasteurella multocida PM 6391 (ATCC 43137, reference strain); assay: MIC, broth-microdilution (CLSI VET01-A4), strain PM 6391; conditions: Pasteurella multocida strain PM 6391, broth-microdilution; unit assumed
Procedure, shortened: as §1

[3] = test system: Pasteurella multocida PM 12080 (IV102277-0093, BRD field isolate); assay: MIC, broth-microdilution (CLSI VET01-A4), strain PM 12080; conditions: Pasteurella multocida strain PM 12080, broth-microdilution; unit assumed
Procedure, shortened: as §1

[4] = test system: Pasteurella multocida PM 10775 (080130003051, BRD field isolate); assay: MIC, broth-microdilution (CLSI VET01-A4), strain PM 10775; conditions: Pasteurella multocida strain PM 10775, broth-microdilution; unit assumed
Procedure, shortened: as §1

[5] = test system: Mannheimia haemolytica MH 13093 (XB0472-6014.1, BRD field isolate); assay: MIC, broth-microdilution (CLSI VET01-A4), strain MH 13093; conditions: Mannheimia haemolytica strain MH 13093, broth-microdilution; unit assumed
Procedure, shortened: as §1

[6] = test system: Mannheimia haemolytica MH 13065 (XB0446-6003.9, BRD field isolate); assay: MIC, broth-microdilution (CLSI VET01-A4), strain MH 13065; conditions: Mannheimia haemolytica strain MH 13065, broth-microdilution; unit assumed
Procedure, shortened: as §1

[7] = test system: Mannheimia haemolytica MH 6374 (ATCC 33396, reference strain); assay: MIC, broth-microdilution (CLSI VET01-A4), strain MH 6374; conditions: Mannheimia haemolytica strain MH 6374, broth-microdilution; unit assumed
Procedure, shortened: as §1

[8] = test system: Mannheimia haemolytica MH 12587 (1071, BRD field isolate, macrolide-resistance: erm+, E+); assay: MIC, broth-microdilution (CLSI VET01-A4), strain MH 12587; conditions: Mannheimia haemolytica strain MH 12587, broth-microdilution; unit assumed
Procedure, shortened: as §1

[9] = test system: Pasteurella multocida PM 6267 (P 2225 (L386), reference strain, mouse infection strain); assay: MIC, broth-microdilution (CLSI VET01-A4), strain PM 6267; conditions: Pasteurella multocida strain PM 6267, broth-microdilution; unit assumed
Procedure, shortened: as §1

[10] = test system: Mannheimia haemolytica MH 6357 (M7/2, reference strain, cattle infection strain); assay: MIC, broth-microdilution (CLSI VET01-A4), strain MH 6357; conditions: Mannheimia haemolytica strain MH 6357, broth-microdilution; unit assumed
Procedure, shortened: as §1

| MIC PM 6391 [2] [µg/mL] | MIC PM 12080 [3] [µg/mL] | MIC PM 10775 [4] [µg/mL] | MIC PM 6267 [9] [µg/mL] | Structure (SMILES) | MIC MH 10720 [1] [µg/mL] | MIC MH 13093 [5] [µg/mL] | MIC MH 13065 [6] [µg/mL] | MIC MH 6374 [7] [µg/mL] | MIC MH 12587 [8] [µg/mL] | MIC MH 6357 [10] [µg/mL] |
| --- | --- | --- | --- | --- | --- | --- | --- | --- | --- | --- |
| 0.8 (≈ 1.89 µM) | 0.8 (≈ 1.89 µM) | ≤ 0.1 | 0.4 (≈ 0.944 µM) | CC(C)(C)CNCc1ccc(C#Cc2ccc(C(=O)N[C@@H](CO)C(=O)NO)cc2)cc1 [Compound 136] | 1.6 (≈ 3.78 µM) | 25 (≈ 59 µM) | 12.5 (≈ 29.5 µM) | 12.5 (≈ 29.5 µM) | 25 (≈ 59 µM) | 3.1 (≈ 7.32 µM) |
| 1.6 (≈ 3.67 µM) | ≤ 0.1 | ≤ 0.1 | 0.8 (≈ 1.83 µM) | CN1CCN(Cc2ccc(C#Cc3ccc(C(=O)N[C@@H](CO)C(=O)NO)cc3)cc2)CC1 [Compound 146] | 1.6 (≈ 3.67 µM) | 25 (≈ 57.3 µM) | 12.5 (≈ 28.6 µM) | 25 (≈ 57.3 µM) | 25 (≈ 57.3 µM) | 6.3 (≈ 14.4 µM) |
| 0.2 (≈ 0.442 µM) | 0.8 (≈ 1.77 µM) | 1.6 (≈ 3.54 µM) | 6.3 (≈ 13.9 µM) | COCCNCc1ccc(C#Cc2ccc(C(=O)N[C@H](C(=O)NO)C(C)=NOC)cc2)cc1 [Compound 380] | 3.1 (≈ 6.85 µM) | 6.3 (≈ 13.9 µM) | 3.1 (≈ 6.85 µM) | 6.3 (≈ 13.9 µM) | 0.8 (≈ 1.77 µM) | 3.1 (≈ 6.85 µM) |
| 1.6 (≈ 3.57 µM) | 0.8 (≈ 1.79 µM) | ≤ 0.1 | 0.4 (≈ 0.894 µM) | CC[C@H](C)[C@H](NC(=O)c1ccc(C#Cc2ccc(CN3CCCCC3)cc2)cc1)C(=O)NO [Compound 187] | 1.6 (≈ 3.57 µM) | 6.3 (≈ 14.1 µM) | 6.3 (≈ 14.1 µM) | 12.5 (≈ 27.9 µM) | 12.5 (≈ 27.9 µM) | 3.1 (≈ 6.93 µM) |
| ≤ 0.1 | 0.4 (≈ 0.825 µM) | 0.4 (≈ 0.825 µM) | 0.8 (≈ 1.65 µM) | CON=C(C)[C@H](NC(=O)c1ccc(C#Cc2ccc(CNCc3ccccc3)cc2)cc1)C(=O)NO [Compound 382] | 0.8 (≈ 1.65 µM) | 0.8 (≈ 1.65 µM) | 0.8 (≈ 1.65 µM) | 1.6 (≈ 3.3 µM) | 0.2 (≈ 0.413 µM) | 0.8 (≈ 1.65 µM) |
| 0.2 (≈ 0.401 µM) | 0.4 (≈ 0.802 µM) | 0.8 (≈ 1.6 µM) | 6.3 (≈ 12.6 µM) | CON=C(C)[C@H](NC(=O)c1ccc(C#Cc2ccc(CNCc3ccc(C)cc3)cc2)cc1)C(=O)NO [Compound 393] | 0.8 (≈ 1.6 µM) | 6.3 (≈ 12.6 µM) | 6.3 (≈ 12.6 µM) | 1.6 (≈ 3.21 µM) | 0.4 (≈ 0.802 µM) | 0.8 (≈ 1.6 µM) |
| 0.4 (≈ 0.91 µM) | 0.4 (≈ 0.91 µM) | ≤ 0.1 | ≤ 0.1 | COCCNCc1ccc(C#Cc2ccc(C(=O)N[C@H](C(=O)NO)C(C)(C)O)cc2)cc1 [Compound 221] | ≤ 0.1 | 1.6 (≈ 3.64 µM) | 1.6 (≈ 3.64 µM) | 0.8 (≈ 1.82 µM) | 3.1 (≈ 7.05 µM) | 0.8 (≈ 1.82 µM) |
| ≤ 0.1 | 0.2 (≈ 0.46 µM) | 0.4 (≈ 0.921 µM) | 1.6 (≈ 3.68 µM) | CON=C(C)[C@H](NC(=O)c1ccc(C#Cc2ccc(CNC3CC3)cc2)cc1)C(=O)NO [Compound 378] | 0.4 (≈ 0.921 µM) | 0.8 (≈ 1.84 µM) | 0.8 (≈ 1.84 µM) | 0.8 (≈ 1.84 µM) | 0.2 (≈ 0.46 µM) | 0.8 (≈ 1.84 µM) |

More lines, now with the values behind:

| Structure (SMILES) | MIC PM 6391 [2] [µg/mL] | MIC PM 12080 [3] [µg/mL] | MIC PM 10775 [4] [µg/mL] | MIC PM 6267 [9] [µg/mL] | MIC MH 10720 [1] [µg/mL] | MIC MH 13093 [5] [µg/mL] | MIC MH 13065 [6] [µg/mL] | MIC MH 6374 [7] [µg/mL] | MIC MH 12587 [8] [µg/mL] | MIC MH 6357 [10] [µg/mL] |
| --- | --- | --- | --- | --- | --- | --- | --- | --- | --- | --- |
| CC(C)(O)[C@H](NC(=O)c1ccc(C#Cc2ccc(CNCc3ccccc3)nc2)cc1)C(=O)NO [Compound 327] | ≤ 0.1 | ≤ 0.1 | ≤ 0.1 | 0.4 (≈ 0.846 µM) | ≤ 0.1 | 0.8 (≈ 1.69 µM) | 0.4 (≈ 0.846 µM) | 0.8 (≈ 1.69 µM) | 1.6 (≈ 3.39 µM) | 0.8 (≈ 1.69 µM) |
| CC(C)(O)[C@H](NC(=O)c1ccc(C#Cc2ccc(CNCc3ccccn3)s2)cc1)C(=O)NO [Compound 297] | ≤ 0.1 | 0.2 (≈ 0.418 µM) | ≤ 0.1 | 0.4 (≈ 0.836 µM) | ≤ 0.1 | 0.4 (≈ 0.836 µM) | 0.4 (≈ 0.836 µM) | 0.4 (≈ 0.836 µM) | 0.8 (≈ 1.67 µM) | 0.2 (≈ 0.418 µM) |
| CC(C)([C@H](NC(=O)c1ccc(C#Cc2ccc(CNCc3ccccc3)s2)cc1)C(=O)NO)S(C)(=O)=O [Compound 315] | ≤ 0.1 | ≤ 0.1 | ≤ 0.1 | 0.2 (≈ 0.371 µM) | ≤ 0.1 | 0.4 (≈ 0.741 µM) | ≤ 0.1 | ≤ 0.1 | 0.4 (≈ 0.741 µM) | ≤ 0.1 |
| CC[C@H](C)[C@H](NC(=O)c1ccc(C#Cc2ccc(CNCc3ncc[nH]3)cc2)cc1)C(=O)NO [Compound 184] | 3.1 (≈ 6.75 µM) | 1.6 (≈ 3.48 µM) | ≤ 0.1 | 0.4 (≈ 0.87 µM) | 0.8 (≈ 1.74 µM) | 6.3 (≈ 13.7 µM) | 6.3 (≈ 13.7 µM) | 6.3 (≈ 13.7 µM) | 12.5 (≈ 27.2 µM) | 12.5 (≈ 27.2 µM) |
| CC(C)(C(NC(=O)c1ccc(C#Cc2ccc(CNCc3ccc(F)cc3)cc2)cc1)C(=O)NO)[N+](=O)[O-] (stereo not drawn) [Compound 284] | 0.4 (≈ 0.771 µM) | ≤ 0.1 | ≤ 0.1 | 0.8 (≈ 1.54 µM) | ≤ 0.1 | 0.8 (≈ 1.54 µM) | 0.2 (≈ 0.386 µM) | 0.8 (≈ 1.54 µM) | 1.6 (≈ 3.09 µM) | 0.4 (≈ 0.771 µM) |
| CSC(C)(C)C(NC(=O)c1ccc(C#Cc2ccc(CN3CCOCC3)nc2)cc1)C(=O)NO (stereo not drawn) [Compound 338] | 0.8 (≈ 1.66 µM) | 0.4 (≈ 0.829 µM) | ≤ 0.1 | 3.1 (≈ 6.42 µM) | 0.8 (≈ 1.66 µM) | 6.3 (≈ 13.1 µM) | 3.1 (≈ 6.42 µM) | 6.3 (≈ 13.1 µM) | 6.3 (≈ 13.1 µM) | 3.1 (≈ 6.42 µM) |
| O=C(N[C@@H](CO)C(=O)NO)c1ccc(C#Cc2ccc(CN3CCCOCC3)cc2)cc1 [Compound 215] | ≤ 0.1 | ≤ 0.1 | ≤ 0.1 | ≤ 0.1 | 0.8 (≈ 1.83 µM) | 6.3 (≈ 14.4 µM) | 3.1 (≈ 7.09 µM) | 3.1 (≈ 7.09 µM) | 6.3 (≈ 14.4 µM) | 3.1 (≈ 7.09 µM) |
| CC(C)([C@H](NC(=O)c1ccc(C#Cc2ccc(CNCc3ncccn3)s2)cc1)C(=O)NO)S(C)(=O)=O [Compound 322] | 0.2 (≈ 0.369 µM) | ≤ 0.1 | ≤ 0.1 | 0.4 (≈ 0.738 µM) | ≤ 0.1 | 0.8 (≈ 1.48 µM) | 0.8 (≈ 1.48 µM) | 1.6 (≈ 2.95 µM) | 1.6 (≈ 2.95 µM) | 0.4 (≈ 0.738 µM) |
| C=CCNCc1ccc(C#Cc2ccc(C(=O)N[C@H](C(=O)NO)C(C)(C)S(C)(=O)=O)cc2)s1 [Compound 312] | ≤ 0.1 | ≤ 0.1 | ≤ 0.1 | 0.4 (≈ 0.817 µM) | ≤ 0.1 | 0.8 (≈ 1.63 µM) | 0.4 (≈ 0.817 µM) | 0.4 (≈ 0.817 µM) | 0.8 (≈ 1.63 µM) | 0.4 (≈ 0.817 µM) |
| Cc1ccc(CNCc2ccc(C#Cc3ccc(C(=O)N[C@H](C(=O)NO)C(C)(C)S(C)(=O)=O)cc3)cc2)cc1 [Compound 272] | 0.2 (≈ 0.365 µM) | ≤ 0.1 | ≤ 0.1 | ≤ 0.1 | ≤ 0.1 | 0.8 (≈ 1.46 µM) | 0.2 (≈ 0.365 µM) | 0.4 (≈ 0.73 µM) | 1.6 (≈ 2.92 µM) | 0.8 (≈ 1.46 µM) |
